The values below come from patent US20060183189A1, “Regulatable gene expression in mammalian cells and mammals” (priority 2003, published 2006).

Structures are written as SMILES.

One assay has as its target T1, AlkS (Ectopseudomonas oleovorans, UniProt P17051).
T1 construct: expressed in transfected cells; host or cells: CHO-K1
The assay is described as follows: AlkS-based regulatable SEAP expression in CHO-K1 cells. In kind it is cell-based, Pseudomonas putida (oleovorans). Particulars: CHO-K1 cells transfected with AlkS and PSV40 promoter with 8 OP repeats; upon addition of regulating compound. An excerpt:
A regulatable expression system responsive to liquid or gaseous inducers based on bacterial elements is constructed by PCR-cloning the Pseudomonas putida (oleovorans)-derived RTF AlkS (Smiths et al., 2001. Plasmid 46, 16-24) into the mammalian expression vector pEF6V5-His TOPO (Invitrogen, Carlsbad, Calif.). The responsive promoter is constructed by cloning 8 repeats of the AlkS-specific OP site downstream of the simian virus 40 promoter PSV40 followed by a reporter gene, the secreted alkaline phosphatase SEAP.
Transfection of the plasmids encoding AlkS and the responsive promoter controlling SEAP expression in CHO-K1 cells results in SEAP expression levels typical for PSV40-driven constitutive expression.

The next assay addresses T2, AlcR (Emericella nidulans, UniProt P21228).
T2 construct: excising alcR (EcoRI/SalI) from an alcR cDNA containing vector; expressed in transfected cells; host or cells: CHO-K1
Nature of the assay: Gas-phase controlled SEAP expression of stable CHO-K1-derived cell line in a bioreactor. In kind it is cell-based, Aspergillus nidulans. To be noted: 2.5 L bioreactor, gassing in air containing 340 ppm acetaldehyde, then 40 ppm; shut down by sparging with pure air. An excerpt: A stable CHO-K1-derivative engineered for acetaldehyde-inducible SEAP expression is cultivated in a bioreactor. […] The specific SEAP productivities (μU/10^6 cells/h) are indicated over time (h).
A CHO-K1-derived cell line is constructed for gas-inducible expression of a secreted alkaline phosphatase (SEAP) by stable transfection/transduction with plasmid pWW192 (see Example 1) and a pWW506-based viral particle (see Example 4).

T1 sequence (P17051 whole entry): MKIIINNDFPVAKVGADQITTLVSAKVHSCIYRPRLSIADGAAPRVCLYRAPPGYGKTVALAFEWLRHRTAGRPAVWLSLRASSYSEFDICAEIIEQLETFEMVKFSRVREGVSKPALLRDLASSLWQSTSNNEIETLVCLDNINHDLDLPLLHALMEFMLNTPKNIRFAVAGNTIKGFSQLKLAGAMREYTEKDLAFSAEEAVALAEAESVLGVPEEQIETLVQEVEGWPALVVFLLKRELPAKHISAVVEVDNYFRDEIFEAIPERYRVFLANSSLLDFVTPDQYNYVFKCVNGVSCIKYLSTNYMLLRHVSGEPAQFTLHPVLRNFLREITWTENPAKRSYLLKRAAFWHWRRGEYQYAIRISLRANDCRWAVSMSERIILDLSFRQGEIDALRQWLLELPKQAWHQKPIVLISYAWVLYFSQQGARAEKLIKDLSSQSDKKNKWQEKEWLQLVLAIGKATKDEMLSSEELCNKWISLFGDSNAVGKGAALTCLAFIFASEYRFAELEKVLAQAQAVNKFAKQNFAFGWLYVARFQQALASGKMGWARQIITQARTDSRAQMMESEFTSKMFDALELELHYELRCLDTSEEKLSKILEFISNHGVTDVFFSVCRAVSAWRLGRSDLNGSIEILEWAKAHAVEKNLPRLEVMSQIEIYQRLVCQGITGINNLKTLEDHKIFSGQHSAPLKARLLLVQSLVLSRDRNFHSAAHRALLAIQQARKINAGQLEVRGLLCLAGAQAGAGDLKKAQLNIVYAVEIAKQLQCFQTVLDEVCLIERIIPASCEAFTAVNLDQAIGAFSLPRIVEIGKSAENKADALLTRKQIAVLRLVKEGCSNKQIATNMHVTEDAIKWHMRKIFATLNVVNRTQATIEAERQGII
T2 sequence (P21228 whole entry): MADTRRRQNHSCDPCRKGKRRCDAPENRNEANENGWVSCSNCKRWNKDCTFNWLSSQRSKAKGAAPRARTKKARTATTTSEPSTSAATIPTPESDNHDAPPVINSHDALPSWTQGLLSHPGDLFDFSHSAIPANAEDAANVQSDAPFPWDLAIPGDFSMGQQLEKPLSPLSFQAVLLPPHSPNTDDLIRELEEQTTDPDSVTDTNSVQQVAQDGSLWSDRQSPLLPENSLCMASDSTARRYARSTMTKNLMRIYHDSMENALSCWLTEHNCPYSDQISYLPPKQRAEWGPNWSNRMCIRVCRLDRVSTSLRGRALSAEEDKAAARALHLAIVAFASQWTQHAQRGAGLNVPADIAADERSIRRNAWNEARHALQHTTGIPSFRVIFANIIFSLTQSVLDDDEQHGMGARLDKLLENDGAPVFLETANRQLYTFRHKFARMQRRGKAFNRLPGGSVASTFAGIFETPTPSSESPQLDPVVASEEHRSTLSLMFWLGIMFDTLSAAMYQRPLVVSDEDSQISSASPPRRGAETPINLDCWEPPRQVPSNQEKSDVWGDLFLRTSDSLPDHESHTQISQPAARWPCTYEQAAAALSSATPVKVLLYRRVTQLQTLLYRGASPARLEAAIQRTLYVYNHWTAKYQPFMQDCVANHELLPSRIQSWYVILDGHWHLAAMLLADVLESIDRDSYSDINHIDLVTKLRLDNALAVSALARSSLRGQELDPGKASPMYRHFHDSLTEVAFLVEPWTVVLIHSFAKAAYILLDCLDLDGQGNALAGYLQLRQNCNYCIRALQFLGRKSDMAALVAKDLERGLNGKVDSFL

With `CCOCC` [ethyl ether], at AlkS, the SEAP expression result was “decreases in a dose-dependent manner”.

Consider `CC=O` [acetaldehyde], for which, at AlcR, the SEAP expression result is on record as “induced”.

With `O=C(C1CC1)C1CC1` [dicyclopropylketone], the SEAP expression result on AlkS was “decreases in a dose-dependent manner”.

On to `CCOC(C)=O` [ethyl acetate], for which, on AlkS, the SEAP expression result is listed as “decreases in a dose-dependent manner”.
